# Measurements published in patent US20250332173A1, “COMPOUNDS AND METHODS FOR MODULATING NUCLEIC ACID SPLICING” (REMIX THERAPEUTICS INC., priority 2021, published 2025).
# Where two headings read alike, the source gives them in different places.
# Legend:
# [1] = system: Target C; test: RT-qPCR splicing assay panel, Target C canonical junction (CJ) mRNA; assay type: cell-based, human; details: Homo sapiens; canonical junction qPCR panel, Table 5; read-out: Target C (decrease in CJ mRNA levels, IC50)
# Experimental: (§1) The expression of a target mRNA was measured by detecting the formation of an exon-exon junction in the canonical transcript (CJ). A compound mediated exon-inclusion event was detected by observing an increase in formation of a new junction with an alternative exon (AJ). Real-time qPCR assays were used to detect these splicing switches and interrogate the potency of various compounds towards different target genes. A high-throughput real time quantitative PCR (RT-qPCR) assay was developed to measure these two isoforms of the mRNA (CJ and AJ) for exemplary genes, such as HTT, SMN2, and MYB, together with a control housekeeping gene, GAPDH or GUSB or PPIA, used for normalization. Briefly, the A673 or K562 cell line was treated with various compounds described herein (e.g., compounds of Formula (I)). After treatment, the levels of the HTT, MYB, or SMN2 mRNA targets were determined from each sample of cell lysate by cDNA synthesis followed by qPCR.
# (§2) The A673 cell line was cultured in DMEM with 10% FBS. Cells were diluted with full growth media and plated in a 96-well plate (15,000 cells in 100 ul media per well). The plate was incubated at 37° C. with 5% CO2 for 24 hours to allow cells to adhere. An 11-point 3-fold serial dilution of the compounds was made in DMSO then diluted in media in an intermediate plate. Compounds were transferred from the intermediate plate to the cell plate with the top dose at a final concentration of 10 uM in the well. Final DMSO concentration was kept at or below 0.25%. The cell plate was returned to the incubator at 37° C. with 5% CO2 for an additional 24 hours.
# (§3) The K562 cell line was cultured in IMDM with 10% FBS. For K562, cells were diluted with full growth media and plated in either a 96-well plate (50,000 cells in 50 uL media per well) or a 384-well plate (8,000-40,000 cells in 45 uL media per well). An 11-point 3-fold serial dilution of the compounds were made in DMSO then diluted in media in an intermediate plate. Compound was transferred from the intermediate plate to the cell plate with the top dose at a final concentration of 10 uM in the well. Final DMSO concentration was kept at or below 0.25%. Final volume was 100 uL for 96-well plate and 50 uL for 384-well plate. The cell plate was then placed in an incubator at 37° C. with 5% CO2 for 24 hours.
# (§4) The cells were then gently washed with 50 uL-100 uL cold PBS before proceeding to addition of lysis buffer. 30 uL-50 uL of room temperature lysis buffer with DNAse I (and optionally RNAsin) was added to each well. Cells were shaken/mixed thoroughly at room temperature for 5-10 minutes for lysis to take place and then 3 uL-5 uL of room temperature stop solution was added and wells were shaken/mixed again. After 2-5 minutes, the cell lysate plate was transferred to ice for RT-qPCR reaction setup. The lysates could also be frozen at −80° C. for later use.
# (§5) In some cases, a direct lysis buffer was used. An appropriate volume of 3× lysis buffer (10 mM Tris, 150 mM NaCl, 1.5%-2.5% Igepal and 0.1-1 U/uL RNAsin, pH 7.4) was directly added to either K562 or A673 cells in media and mixed by pipetting 3 times. The plates were then incubated at room temperature with shaking/rocking for 20-50 minutes to allow for lysis to take place. After this time, the cell lysate plate was transferred to ice to set up for the RT-qPCR reactions. The lysates could also be frozen at −80° C. for later use.
# (§6) To set up 10 uL RT-qPCR reactions, cell lysates were transferred to 384-well qPCR plates containing the master mix according to the table below. The plates were sealed, gently vortexed, and spun down before the run. The volumes were adjusted accordingly in some instances where the reaction was carried in 20 uL. The table below summarizes the components of the RT-qPCR reactions:
# (§7) The RT-qPCR reaction was performed using a QuantStudio (ThermoFisher) under the following fast cycling conditions.
# [2] = system: MYB mRNA; test: RT-qPCR splicing assay, MYB canonical junction (CJ) and alternative junction (AJ) mRNA; assay type: cell-based, human; details: Homo sapiens; for AC50: increase in MYB alternative junction (AJ) mRNA, read-out: MYB AJ AC50
# Experimental: as §1
# (§8) • Cells-to-CT 1-step kit: ThermoFisher A25602, Cells-to-CT lysis reagent: ThermoFisher 4391851C, TaqMan™ Fast Virus 1-Step Master Mix: ThermoFisher 4444436 • GAPDH: VIC-PL, ThermoFisher 4326317E (Assay: Hs99999905_m1)—used for K562/suspension cell lines • GUSB: VIC-PL, ThermoFisher 4326320E (Assay: Hs99999908_m1)—used for K562/suspension cell lines • PPIA: VIC-PL, ThermoFisher 4326316E (Assay: Hs99999904_m1)—used for A673/adherent cell lines
# as §2, §3, §4, §5
# [3] = system: HTT mRNA; test: RT-qPCR splicing assay, HTT canonical junction (CJ) and alternative junction (AJ) mRNA; assay type: cell-based, human; details: Homo sapiens; for AC50: increase in HTT alternative junction (AJ) mRNA, read-out: HTT AJ AC50
# Experimental: as §1, §8, §2, §3, §4, §5
# [4] = system: SMN2 mRNA; test: RT-qPCR splicing assay, SMN2 canonical junction (CJ) mRNA; assay type: cell-based, human; details: Homo sapiens; canonical junction qPCR panel, Table 5; read-out: SMN2 (decrease in CJ mRNA levels, IC50)
# Experimental: as §1, §2, §3, §4, §5, §6, §7
# [5] = system: K562 (human chronic myelogenous leukemia) cells; test: Cell Titer Glo 2.0 cell viability assay; assay type: cell-based; details: Homo sapiens, K562, 72 h, K562 cells, 72 hours, Cell Titer Glo 2.0; read-out: K562 GI50
# [6] = canonical junction qPCR panel, Table 5, read-out: MYB (decrease in CJ mRNA levels, IC50)
# [7] = decrease in MYB canonical junction (CJ) mRNA, RT-qPCR, read-out: MYB CJ IC50
# [8] = decrease in HTT canonical junction (CJ) mRNA, RT-qPCR, read-out: HTT CJ IC50
# [9] = canonical junction qPCR panel, Table 5, read-out: HTT (decrease in CJ mRNA levels, IC50)
IC50 [1] [µM],"IC50 [2, 6] [µM]","IC50 [2, 7] [µM]","IC50 [3, 8] [µM]","IC50 [3, 9] [µM]",IC50 [4] [µM],GI50 [5] [µM],SMILES,AC50 ([2]; RT-qPCR) [µM],AC50 ([3]; RT-qPCR) [µM]
1 to 10,0.1 to 1,0.1 to 1,0.1 to 1,0.1 to 1,< 0.1,–,Cn1cc2cc(-c3ccc4c(=O)n(C5CCNCC5)ccc4n3)c(O)c(C#N)c2n1 [Compound 1283],0.1 to 1,0.1 to 1
0.1 to 1,0.1 to 1,0.1 to 1,< 0.1,< 0.1,< 0.1,–,Cc1cn2nc(-c3ccc4c(=O)n([C@@H]5CCNC6(CC6)C5)ncc4n3)cc(C)c2n1 [Compound 1298],0.1 to 1,< 0.1
> 10,0.1 to 1,0.1 to 1,1 to 10,1 to 10,< 0.1,0.1 to 1,Cc1c(O)c(-c2ncc3c(=O)n([C@@H]4CCNC(C)(C)C4)ccc3n2)cc2cn(C)nc12 [Compound 1435],0.1 to 1,1 to 10
1 to 10,0.1 to 1,0.1 to 1,> 10,1 to 10,< 0.1,0.1 to 1,"Cc1c(O)c(-c2ncc3c(=O)n([C@H]4CC[C@@H](N)C4)ccc3n2)cc2cn(C)nc12 [Compound 1473, 6-[(1S,3R)-3-aminocyclopentyl]-2-(6-hydroxy-2,7-dimethyl-indazol-5-yl)pyrido[4,3-d]pyrimidin-5-one]",0.1 to 1,1 to 10
1 to 10,0.1 to 1,1 to 10,1 to 10,1 to 10,< 0.1,0.1 to 1,C[C@@H]1C[C@H](n2ccc3nc(-c4cc5cn(C)nc5cc4O)ncc3c2=O)CCN1 [Compound 1474],0.1 to 1,1 to 10
1 to 10,1 to 10,1 to 10,> 10,1 to 10,0.1 to 1,1 to 10,Cc1cn2cc(-c3ccc4c(=O)n([C@@H]5CCN[C@H](C)C5)ccc4n3)cc(F)c2n1 [Compound 1475],1 to 10,1 to 10
1 to 10,0.1 to 1,0.1 to 1,1 to 10,1 to 10,< 0.1,0.1 to 1,"CN[C@H]1CC[C@@H](n2ccc3nc(-c4cc5cn(C)nc5c(C)c4O)ncc3c2=O)C1 [Compound 1478, 2-(6-hydroxy-2,7-dimethyl-indazol-5-yl)-6-[(1R,3S)-3-(methylamino)cyclopentyl]pyrido[4,3-d]pyrimidin-5-one]",0.1 to 1,1 to 10
0.1 to 1,0.1 to 1,0.1 to 1,0.1 to 1,0.1 to 1,0.1 to 1,0.1 to 1,"Cc1cn2cc(-c3ncc4c(=O)n([C@@H]5C[C@@H](C)N[C@@H](C)C5)ccc4n3)cc(F)c2n1 [Compound 1480, 6-[(2R,6S)-2,6-dimethyl-4-piperidyl]-2-(8-fluoro-2-methyl-imidazo[1,2-a]pyridin-6-yl)pyrido[4,3-d]pyrimidin-5-one]",0.1 to 1,0.1 to 1
1 to 10,< 0.1,0.1 to 1,1 to 10,0.1 to 1,< 0.1,< 0.1,"Cn1cc2cc(-c3ccc4c(=O)n(C56CCC(N)(CC5)C6)ccc4n3)c(O)cc2n1 [Compound 1481, 6-(4-aminonorbornane-1-yl)-2-(6-hydroxy-2-methyl-indazol-5-yl)-1,6-naphthyridin-5-one]",< 0.1,0.1 to 1
0.1 to 1,< 0.1,0.1 to 1,1 to 10,1 to 10,< 0.1,< 0.1,"Cc1cn2cc(-c3ncc4c(=O)n(C5C[C@H](C)N[C@@H](C)C5)ccc4n3)cc(F)c2n1 (stereo partly drawn) [Compound 1482, 6-[(2S,6S)-2,6-dimethyl-4-piperidyl]-2-(8-fluoro-2-methyl-imidazo[1,2-a]pyridin-6yl)pyrido[4,3-d]pyrimidin-5-one]",< 0.1,1 to 10
0.1 to 1,0.1 to 1,1 to 10,1 to 10,0.1 to 1,< 0.1,0.1 to 1,"Cc1cn2cc(-c3ncc4c(=O)n(C5C[C@@H](C)N[C@H](C)C5)ccc4n3)cc(F)c2n1 (stereo partly drawn) [Compound 1483, 6-[(2R,6R)-2,6-dimethyl-4-piperidyl]-2-(8-fluoro-2-methyl-imidazo[1,2-a]pyridin-6-yl)pyrido[4,3-d]pyrimidin-5-one]",0.1 to 1,0.1 to 1
0.1 to 1,< 0.1,< 0.1,0.1 to 1,< 0.1,< 0.1,< 0.1,"Cc1c(O)c(-c2ccc3c(=O)n([C@H]4CC[C@H](N(C)C)CC4)ccc3n2)cc2cn(C)nc12 [Compound 1484, 6-[4-(dimethylamino)cyclohexyl]-2-(6-hydroxy-2,7-dimethyl-indazol-5-yl)-1,6-naphthyridin-5-one]",< 0.1,< 0.1
0.1 to 1,0.1 to 1,0.1 to 1,0.1 to 1,0.1 to 1,< 0.1,0.1 to 1,"Cc1c(O)c(-c2ccc3c(=O)n([C@H]4CC[C@@H](N(C)C)CC4)ccc3n2)cc2cn(C)nc12 [Compound 1485, 6-[4-(dimethylamino)cyclohexyl]-2-(6-hydroxy-2,7-dimethyl-indazol-5-yl)-1,6-naphthyridin-5-one]",0.1 to 1,0.1 to 1

SMILES,IC50 [1] [µM],"IC50 [2, 6] [µM]","IC50 [2, 7] [µM]","IC50 [3, 8] [µM]","IC50 [3, 9] [µM]",IC50 [4] [µM],GI50 [5] [µM],AC50 ([2]; RT-qPCR) [µM],AC50 ([3]; RT-qPCR) [µM]
Cc1c(O)c(-c2ncc3c(=O)n([C@H]4C[C@H]5COC[C@@H](C4)N5)ccc3n2)cc2cn(C)nc12 [Compound 1472],1 to 10,0.1 to 1,0.1 to 1,1 to 10,1 to 10,0.1 to 1,1 to 10,0.1 to 1,1 to 10
